This test deals with beta-TC6 cells. Nature of the test: Insulin HTRF assay (relative activity Ar) in beta-TC6 cells. The test is classed as cell-based, mouse. The settings on record: Mus musculus, Beta-TC6, 4 h, insulin HTRF, supernatant of beta-TC6 cells, incubation with test compound at 37°C for 2, 3, 4h; read-out: Ar (relative activity). From the text:
For further screening of compounds derived from compounds described above for their ability to regulate insulin release an insulin HTRF® (Homogeneous Time-Resolved Fluorescence; Cisbio International, France) was used. This assay is based on two antibodies against insulin binding to different epitopes of insulin. One of these antibodies is coupled to Europium (Ab-Eu-Cryptate) and the other one to the fluorophore XL665 (Ab-XL665). If the insulin is secreted into the supernatant of cell culture, both antibodies can bind to insulin and come therefore into close proximity, which allows upon excitation that energy transfer between (FRET) the long-life fluorescent donor Europium (cryptate) and the acceptors XL665. FRET increases proportionally with insulin concentration.
The automated assay protocol is as follows: • On day 1, 15k beta-TC6 cells per well were seeded for 24 or 48 h in 50 µL complete medium. On day 2 or respective on day 3, the medium is removed and cells are washed with 60 µL 1xPBS and 20 µL induction buffer is added using BioTek washer. Subsequently, 10 µL Sunitininb (5 -µM f.c.) or the test compound in induction buffer; 0.5% f.c. DMSO (CyBi-well) is transferred to the cells. The cells are then incubated at 37°C for 2, 3, 4h.
First 10 µL supernatant is transferred from the cell plates in HTRF plates (CyBi-well). 10 µL of 0, 1, 2, and 4 ng/ml insulin standard controls in assay medium is used as a control. To each well 10 µL of combined 1:25 Ab-XL665 (Acc) and 1:20 Ab-Eu-Cryptate (WellMate) are added and incubated for 120 min at RT in the dark. Finally HTRF is measured on ViewLux ultra high throughput microplate imager (PerkinElmer).
The evaluation software DataFactoty derives relative activities Ar according to the following equation: Ar = (V-R(0%control))/(R(100%control) -R0%control)) × 100 [formula]
The activity of the compounds was classified according to their Ar (relative activity) into the following ranges: […]
In general terms: TR-FRET usually uses a lanthanide donor and a delayed reading to cut background.
For `COc1ccc(Nc2nccc3c2cc(-c2ccsc2)n3C)cc1OC` [Compound 274, N-(3,4-dimethoxyphenyl)-1-methyl-2-(3-thienyl)pyrrolo[3,2-c]pyridin-4-amine], the Emax fell in the range of 30 to 50%.

Regarding `CC(=O)Nc1cccc(Nc2cc3c(cn2)cc(-c2cnn(C)c2)n3C)c1` [Compound 149, N-[3-[[1-methyl-2-(1-methylpyrazol-4-yl)pyrrolo[3,2-c]pyridin-6-yl]amino]phenyl]acetamide], the Emax is > 100%.

For the compound `c1ccc(-c2nc3c(N4CCOCC4)nccc3[nH]2)cc1` [Compound 338, 4-(2-phenyl-1H-imidazo[4,5-c]pyridin-4-yl)morpholine], the Emax fell in the range of 30 to 50%.

Consider `CN(C)C(=O)c1ccc(-c2cc3c(Nc4cccc(O)c4)nccc3n2C)cc1` [Compound 221, 4-[4-(3-hydroxyanilino)-1-methyl-pyrrolo[3,2-c]pyridin-2-yl]-N,N-dimethyl-benzamide], for which the Emax lay in the range of 30 to 50%.

Regarding `Cc1ccc(-c2nc3c(Nc4cccc(O)c4)nccc3[nH]2)cc1` [Compound 383, 3-[[2-(p-tolyl)-1H-imidazo[4,5-c]pyridin-4-yl]amino]phenol], the Emax was in the range of 50 to 100%.

For the compound `Cn1c(NCc2ccccc2F)nc2cnc(-c3ccc(N4CCOCC4)cc3)cc21` [Compound 653, N-[(2-fluorophenyl)methyl]-1-methyl-6-(4-morpholinophenyl)imidazo[4,5-c]pyridin-2-amine], the Emax lay in the range of 50 to 100%.

In the case of `COCCNc1nccc2[nH]c(-c3cccc(C(F)(F)F)c3)nc12` [Compound 355, N-(2-methoxyethyl)-2-[3-(trifluoromethyl)phenyl]-1H-imidazo[4,5-c]pyridin-4-amine], the Emax was 30 to 50%.

As for `CN1CCN(c2nccc3[nH]c(-c4cccc(OC(F)(F)F)c4)nc23)CC1` [Compound 442, 4-(4-methylpiperazin-1-yl)-2-[3-(trifluoromethoxy)phenyl]-1H-imidazo[4,5-c]pyridine], the Emax was 30 to 50%.

As to `NC(=O)c1ccc(Nc2nccc3[nH]c(-c4ccsc4)cc23)cc1` [Compound 250, 4-[[2-(3-thienyl)-1H-pyrrolo[3,2-c]pyridin-4-yl]amino]benzamide], the Emax was 50 to 100%.

Take `CC(=O)Nc1ccc(Nc2cc3c(cn2)ncn3Cc2ccco2)cc1` [Compound 692, N-[4-[[1-(2-furylmethyl)imidazo[4,5-c]pyridin-6-yl]amino]phenyl]acetamide]: the Emax was 30 to 50%.

With `Cn1cc(-c2cc3cnc(Nc4cccc(O)c4)cc3n2C)cn1` [Compound 144, 3-[[1-methyl-2-(1-methylpyrazol-4-yl)pyrrolo[3,2-c]pyridin-6-yl]amino]phenol], the Emax is > 100%.

Consider `CN(C)C(=O)c1ccc(-c2cc3cnc(Nc4ccc(S(C)(=O)=O)cc4)cc3[nH]2)cc1` [Compound 43, N,N-dimethyl-4-[6-(4-methylsulfonylanilino)-1H-pyrrolo[3,2-c]pyridin-2-yl]benzamide], for which the Emax was 50 to 100%.

With `c1ccc(CCNc2nccc3[nH]c(-c4ccncc4)nc23)cc1` [Compound 434, N-phenethyl-2-(4-pyridyl)-1H-imidazo[4,5-c]pyridin-4-amine], the Emax lay within 30 to 50%.

As to `CC(=O)Nc1cccc(Nc2cc3c(cn2)cc(-c2cccnc2)n3C)c1` [Compound 96, N-[3-[[1-methyl-2-(3-pyridyl)pyrrolo[3,2-c]pyridin-6-yl]amino]phenyl]acetamide], the Emax was in the range of 50 to 100%.

`CN(C)C(=O)c1ccc(Nc2nccc3[nH]c(-c4ccccc4)cc23)cc1` [Compound 322, N,N-dimethyl-4-[(2-phenyl-1 H-pyrrolo[3,2-c]pyridin-4-yl)amino]benzamide]: the Emax is > 100%.

As for `Cc1cccc(Nc2cc3[nH]c(-c4ccc(C(=O)N(C)C)cc4)cc3cn2)c1` [Compound 28, N,N-dimethyl-4-[6-(3-methylanilino)-1H-pyrrolo[3,2-c]pyridin-2-yl]benzamide], the Emax was 50 to 100%.

For `CS(=O)(=O)c1cccc(Nc2nccc3[nH]c(-c4ccsc4)cc23)c1` [Compound 262, N-(3-methylsulfonylphenyl)-2-(3-thienyl)-1H-pyrrolo[3,2-c]pyridin-4-amine], the Emax lay in the range of 50 to 100%.

For the origin of these results see EP2818472A1, “Imidazo[4,5-c]pyridine and pyrrolo[3,2-c]pyridine compounds as G-protein-coupled receptor kinase 5 (GRK5) modulators” (Max-Planck-Gesellschaft zur Förderung der Wissenschaften …, priority 2013, dated 2014).
